The results in this text go back to article PMC4154858, “Inhibition of the SR Protein-Phosphorylating CLK Kinases of Plasmodium falciparum Impairs Blood Stage Replication and Malaria Transmission” (PLoS ONE, 2014).

SMILES strings stand for the structures.

Common to all, as to format: biochemical
Conditions in all cases: labelled compound; histone H1, MBP or casein as phosphoacceptor; 10 µM ATP, Mg/Mn, pH 7.5, 37 °C

Test [1] concerns the target T1, PfCLK-3 (Plasmodium falciparum, UniProt Q8IIL5).
T1 construct: gene PF3D7_1114700; endogenous full-length, about 80 kDa, immunoprecipitated from mixed asexual blood stage lysate on protein G-beads
T1 sequence (Q8IIL5 1-699): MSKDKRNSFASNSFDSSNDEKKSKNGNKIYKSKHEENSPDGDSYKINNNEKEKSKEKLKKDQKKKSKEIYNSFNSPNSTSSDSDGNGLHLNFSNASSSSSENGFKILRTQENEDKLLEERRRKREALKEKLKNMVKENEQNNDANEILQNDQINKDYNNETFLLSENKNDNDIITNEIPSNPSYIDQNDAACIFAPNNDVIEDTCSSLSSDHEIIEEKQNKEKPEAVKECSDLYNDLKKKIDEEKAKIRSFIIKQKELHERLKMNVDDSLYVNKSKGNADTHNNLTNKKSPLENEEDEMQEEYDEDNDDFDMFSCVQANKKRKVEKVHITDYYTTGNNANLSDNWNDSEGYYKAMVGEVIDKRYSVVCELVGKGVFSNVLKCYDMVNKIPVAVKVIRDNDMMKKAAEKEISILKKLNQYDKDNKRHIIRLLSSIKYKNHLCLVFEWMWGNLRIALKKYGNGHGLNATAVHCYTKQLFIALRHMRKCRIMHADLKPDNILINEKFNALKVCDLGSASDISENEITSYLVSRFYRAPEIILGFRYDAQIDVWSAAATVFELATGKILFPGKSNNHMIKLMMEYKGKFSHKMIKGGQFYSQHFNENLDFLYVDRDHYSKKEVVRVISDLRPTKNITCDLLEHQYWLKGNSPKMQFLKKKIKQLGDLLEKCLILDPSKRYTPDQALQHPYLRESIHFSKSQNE
The experiment in a line: radiometric kinase assay of immunoprecipitate, autoradiography.

The target of test [2] is T2, PfCLK-4 (Plasmodium falciparum, UniProt O77306).
T2 construct: gene PF3D7_0302100; endogenous full-length, about 160 kDa, immunoprecipitated from mixed asexual blood stage lysate on protein G-beads
T2 sequence (O77306 1-1338): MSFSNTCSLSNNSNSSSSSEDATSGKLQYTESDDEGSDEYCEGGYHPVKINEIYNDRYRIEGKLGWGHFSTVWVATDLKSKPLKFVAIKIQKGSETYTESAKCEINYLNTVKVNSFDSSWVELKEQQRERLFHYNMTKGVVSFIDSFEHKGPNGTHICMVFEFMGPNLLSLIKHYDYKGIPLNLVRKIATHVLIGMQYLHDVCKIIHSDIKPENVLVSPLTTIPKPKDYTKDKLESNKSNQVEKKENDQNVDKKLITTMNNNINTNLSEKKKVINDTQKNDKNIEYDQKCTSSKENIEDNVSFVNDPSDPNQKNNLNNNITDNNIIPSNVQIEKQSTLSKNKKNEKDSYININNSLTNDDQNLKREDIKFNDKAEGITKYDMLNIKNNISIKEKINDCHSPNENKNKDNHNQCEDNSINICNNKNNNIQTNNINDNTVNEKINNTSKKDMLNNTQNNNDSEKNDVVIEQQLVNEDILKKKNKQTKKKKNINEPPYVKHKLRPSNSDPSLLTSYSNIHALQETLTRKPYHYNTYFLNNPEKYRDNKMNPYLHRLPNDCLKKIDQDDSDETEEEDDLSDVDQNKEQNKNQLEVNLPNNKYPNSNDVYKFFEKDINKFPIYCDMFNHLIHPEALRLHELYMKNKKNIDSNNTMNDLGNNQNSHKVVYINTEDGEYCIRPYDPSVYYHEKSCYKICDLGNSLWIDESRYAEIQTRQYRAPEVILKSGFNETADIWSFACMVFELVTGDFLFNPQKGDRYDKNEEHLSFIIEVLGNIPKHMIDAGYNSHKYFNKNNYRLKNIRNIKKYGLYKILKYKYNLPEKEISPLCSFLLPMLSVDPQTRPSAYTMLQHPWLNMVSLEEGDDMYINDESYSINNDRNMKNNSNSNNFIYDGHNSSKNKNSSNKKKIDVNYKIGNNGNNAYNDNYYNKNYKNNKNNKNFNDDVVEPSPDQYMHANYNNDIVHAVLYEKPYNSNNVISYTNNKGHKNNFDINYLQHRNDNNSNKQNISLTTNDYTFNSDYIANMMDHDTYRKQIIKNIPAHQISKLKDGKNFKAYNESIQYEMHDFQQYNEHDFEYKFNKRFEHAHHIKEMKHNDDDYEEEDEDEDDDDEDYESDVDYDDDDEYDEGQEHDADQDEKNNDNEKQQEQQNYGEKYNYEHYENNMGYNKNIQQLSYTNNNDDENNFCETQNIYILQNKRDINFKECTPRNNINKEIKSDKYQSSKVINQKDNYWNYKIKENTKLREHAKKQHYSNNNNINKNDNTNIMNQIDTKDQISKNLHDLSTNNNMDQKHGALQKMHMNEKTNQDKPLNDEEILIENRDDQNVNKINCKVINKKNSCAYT
The test is described as above.

For test [3], the target named is T3, PfCLK-2 (Plasmodium falciparum, UniProt Q8IL41).
T3 construct: gene PF3D7_1443000; endogenous full-length, about 150 kDa, immunoprecipitated from mixed asexual blood stage lysate on protein G-beads
T3 sequence (Q8IL41 1-1268): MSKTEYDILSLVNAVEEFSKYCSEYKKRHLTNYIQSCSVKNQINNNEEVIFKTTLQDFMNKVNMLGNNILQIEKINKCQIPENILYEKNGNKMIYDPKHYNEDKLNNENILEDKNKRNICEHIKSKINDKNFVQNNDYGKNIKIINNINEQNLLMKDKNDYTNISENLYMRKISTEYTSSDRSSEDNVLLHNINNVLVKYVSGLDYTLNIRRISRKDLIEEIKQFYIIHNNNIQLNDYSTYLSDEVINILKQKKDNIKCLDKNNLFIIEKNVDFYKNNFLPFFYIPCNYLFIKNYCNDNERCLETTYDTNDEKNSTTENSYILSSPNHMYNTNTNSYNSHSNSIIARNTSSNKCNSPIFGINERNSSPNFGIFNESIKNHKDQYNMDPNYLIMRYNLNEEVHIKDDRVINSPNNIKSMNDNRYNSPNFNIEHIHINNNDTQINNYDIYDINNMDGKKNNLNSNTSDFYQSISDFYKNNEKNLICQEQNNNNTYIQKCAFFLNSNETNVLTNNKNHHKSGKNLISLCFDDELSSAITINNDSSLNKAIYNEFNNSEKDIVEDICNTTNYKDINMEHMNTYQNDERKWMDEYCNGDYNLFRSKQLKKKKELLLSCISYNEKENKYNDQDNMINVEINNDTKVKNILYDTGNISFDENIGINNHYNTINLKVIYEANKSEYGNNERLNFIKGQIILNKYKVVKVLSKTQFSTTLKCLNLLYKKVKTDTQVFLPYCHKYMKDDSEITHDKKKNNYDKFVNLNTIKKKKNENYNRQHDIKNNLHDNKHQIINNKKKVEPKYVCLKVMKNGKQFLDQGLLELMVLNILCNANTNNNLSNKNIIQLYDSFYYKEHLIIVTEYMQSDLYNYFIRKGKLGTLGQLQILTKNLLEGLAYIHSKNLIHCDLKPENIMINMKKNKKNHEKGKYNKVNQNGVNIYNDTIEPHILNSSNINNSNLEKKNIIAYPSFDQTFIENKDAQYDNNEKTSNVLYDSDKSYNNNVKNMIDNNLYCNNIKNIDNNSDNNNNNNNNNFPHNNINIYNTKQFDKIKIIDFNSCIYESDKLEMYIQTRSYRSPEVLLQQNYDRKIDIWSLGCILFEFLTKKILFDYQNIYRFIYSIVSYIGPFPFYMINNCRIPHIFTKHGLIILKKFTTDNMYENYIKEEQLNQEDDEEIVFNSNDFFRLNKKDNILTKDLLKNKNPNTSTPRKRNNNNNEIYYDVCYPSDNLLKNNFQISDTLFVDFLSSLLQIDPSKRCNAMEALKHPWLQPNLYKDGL
Described as above.

Test [4] concerns the target T4, PfPK6 (Plasmodium falciparum, UniProt O77239).
T4 construct: gene PK6; recombinant His6-tagged, purified as previously reported
T4 sequence (O77239 1-305): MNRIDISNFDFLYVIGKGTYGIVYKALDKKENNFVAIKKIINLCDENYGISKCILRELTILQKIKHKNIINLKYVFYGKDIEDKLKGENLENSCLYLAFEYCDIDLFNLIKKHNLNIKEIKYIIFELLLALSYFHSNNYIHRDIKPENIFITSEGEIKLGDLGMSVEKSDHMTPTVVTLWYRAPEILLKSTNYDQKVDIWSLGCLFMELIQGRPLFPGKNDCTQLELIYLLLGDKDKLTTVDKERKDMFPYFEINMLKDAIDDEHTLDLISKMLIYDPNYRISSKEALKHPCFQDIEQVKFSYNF
The experiment in a line: radiometric kinase assay, autoradiography.

Consider `Nc1ncnc2c1ncn2[C@@H]1O[C@H](COP(=O)(O)OP(=O)(O)OP(=O)(O)O)[C@@H](O)[C@H]1O` [ATP], for which the “radiometric kinase assay of immunoprecipitate, autoradiography” value in test [1], in test [2] and in test [3] was “All PfCLKs were associated with phosphorylation activity of all three substrates” in each case. Also, in test [4], the “radiometric kinase assay, autoradiography” value is “also exhibited strong phosphorylation activity of the three exogenous substrates”.
